{"source": "patent US20080004266A1", "about": "“Method for treating proliferative disorders associated with protooncogene products” (priority 2006, published 2008)", "key": {"[1]": {"tested_on": "NCI-H1975 cells (EGFR T790M and L858R)", "assay": "Cell survival in NCI-H1975 cells (Cell Counting Kit-8)", "type": "cell-based, human", "settings": "Homo sapiens, 72 hours", "protocol": "Human lung cancer cell line NCI-H1975 which harbors both the T790M and the L858R mutations in EGFR was obtained from American Type Culture Collection. NCI-H1975 (10,000 cells/well) were cultured in 96-well plates and maintained at 37° C. for several hours. The cells were incubated at 37° C. for 72 hours with various concentrations of compound 226 of the invention, 17AAG or DMAG. 17AAG and DMAG are Hsp90 inhibitors that are currently in clinical trials and are used here as positive controls for Hsp90 inhibition. Cell survival was measured with Cell Counting Kit-8 (Dojindo Laboratories, Cat # CK04)."}, "[2]": {"tested_on": "human malignant melanoma tumor cell line A-375", "assay": "A-375 (B-raf V600E) nude mouse xenograft model", "type": "in vivo, human (xenograft in nude mouse)", "settings": "50 mg/kg i.v. 3 times per week", "from_the_text": "The human malignant melanoma cell line, A-375 (ATCC #CRL-1619), was obtained from the American Type Culture Collection (ATCC; Manassas, Va., USA). Growth of this tumor cell line is dependent upon the expression of an activated form of the B-RAF serine/threonine kinase carrying a V600E mutation (K. P. Hoeflich et al., Cancer Res. 66:999-1006, 2006; D. J. Panka et al., Cancer Res. 66:1611-1619, 2006). This is the most frequent genetic abnormality observed in melanoma (N. Dhomen and R. Marais, Curr. Opin. Genet. Dev. 17:31-39, 2007). The cells were cultured in growth media prepared with Dulbecco's Modified Eagle Medium (high glucose), 10% fetal bovine serum (FBS), 1% 100× Penicillin-Streptomycin, 1% 10× sodium pyruvate and 1% 10×MEM non-essential amino acids. FBS was obtained from ATCC and all other reagents were obtained from Invitrogen Corp. (Carlsbad, Calif., USA). […] The supernatant was aspirated and the cell pellet was resuspended in 10 mL of growth media and the cell number determined using a hemocytometer. […]\nTumors were then permitted to develop in vivo until the majority reached 90-160 mm^3 in tumor volume, which required 5-6 weeks following implantation. […] Tumor volumes (V) were calculated by caliper measurement of the width (W), length (L) and thickness (T) of tumors using the following formula: V=0.5236×(L×W×T). […]"}}, "note": "Where “and” joins values, the source holds several entries; their conditions need not be identical. Equal values may be shown once."}
{"smiles": "CC(C)c1cc(-c2nnc(O)n2-c2ccc3c(ccn3C)c2)c(O)cc1O", "note": "[Compound 226, 3-(2,4-di-hydroxy-5-isopropyl-phenyl)-4-(1-methyl-indol-5-yl)-5-hydroxy-[1,2,4] triazole]", "values": [{"measurement": "IC50", "setting": "[1]", "result": 0.016, "unit": "µM"}, {"measurement": "average bodyweight gain relative to the start of the study", "setting": "[2]; day 60", "result": "2.7% (+/−1.1 SEM) and 2.7% (+/1.1 SEM)"}, {"measurement": "% T/C value", "setting": "[2]; nude mice, 8 doses, day 63", "result": 17, "unit": "%"}]}
